These results are taken from PubChem BioAssay AID330 (DTP/NCI, 2004).

Where “and” joins values, the source holds several entries; their conditions need not be identical. Equal entries are not always repeated. Toxic doses and inconclusive results are not listed. Numbered stars: 1 amine (or outer) side, 2 acyl side, 3 side chain; on linkers, the order of the positions; unused ones are H or OH. Square brackets hold non-standard residues; d marks the D form. Peptide text beside a SMILES is read from it. * marks the point of attachment. X18 = CCC(=O)CC1CC(C)CC(C(=O)[*:2])N1[*:1]; X17 = CCCCCCCCC(C)C(=O)*; Aib = CC(C)(N)C(=O)O; X19 = CC(CN(C)CCO)N*

This test relates to P388 leukemia ip, CD2F1 mice, survival T/C. Briefly: NCI In Vivo Anticancer Drug Screen. Data for tumor model P388 Leukemia (intraperitoneal) in CD2F1 (CDF1) mice. As to conditions: endpoint: median survival time, higher = longer survival. The procedure, abridged:
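Mice carrying the transplanted tumor received test compound or vehicle. Survival was recorded in each group, and the value is the treated-group measurement divided by that of the vehicle-treated control group.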

Where [1] appears, read: dose: 200.0 mg/kg/injection, schedule: Q01DX001 (ip), vehicle: saline with Tween-80.
Where [2] appears, read: dose: 50.0 mg/kg/injection, schedule: Q01DX005 (ip), vehicle: saline with Tween-80.
The mark [3] stands for this setting: dose: 100.0 mg/kg/injection, schedule: Q01DX009 (ip), vehicle: saline with Tween-80.
Setting [4] is: dose: 200.0 mg/kg/injection, schedule: Q01DX009 (ip), vehicle: saline with Tween-80.
Setting [5] is: dose: 50.0 mg/kg/injection, schedule: Q01DX009 (ip), vehicle: saline.
Setting [6] is: dose: 60.0 mg/kg/injection, schedule: Q01DX005 (ip), vehicle: saline with Tween-80.
The mark [7] stands for this setting: dose: 120.0 mg/kg/injection, schedule: Q01DX005 (ip), vehicle: saline with Tween-80.
The mark [8] stands for this setting: dose: 240.0 mg/kg/injection, schedule: Q01DX005 (ip), vehicle: saline with Tween-80.
Setting [9] is: dose: 50.0 mg/kg/injection, schedule: Q01DX005 (ip), vehicle: Klucel (hydroxypropylcellulose) (HPC).
Where [10] appears, read: dose: 15.0 mg/kg/injection, schedule: Q01DX005 (ip), vehicle: saline with Tween-80.

Regarding `O/N=C1/CCN2CCCc3cccc1c32`, the T/C was 95 % of control (dose: 132.0 mg/kg/injection, schedule: Q01DX001 (ip), vehicle: saline with Tween-80); 100 % of control under setting [1]; 100 % of control (dose: 300.0 mg/kg/injection, schedule: Q01DX001 (ip), vehicle: saline with Tween-80).
For the compound `Cc1cc2c(C(C)C)c(O)c(O)c(C=NCCO)c2c(O)c1-c1c(C)cc2c(C(C)C)c(O)c(O)c(C=NCCO)c2c1O`, the T/C runs as follows: under setting [2], 113 % of control; (dose: 75.0 mg/kg/injection, schedule: Q01DX005 (ip), vehicle: saline with Tween-80) 120 % of control; (dose: 100.0 mg/kg/injection, schedule: Q01DX005 (ip), vehicle: saline with Tween-80) 120 % of control.
In the case of `CC(C)=CCC(OC1OC(CO)C(O)C(O)C1O)C1=CC(=O)c2c(O)ccc(O)c2C1=O` (stereo not given), the T/C by setting is: (dose: 12.5 mg/kg/injection, schedule: Q04DX002 (ip), vehicle: saline with Tween-80) 119 % of control; (dose: 25.0 mg/kg/injection, schedule: Q04DX002 (ip), vehicle: saline with Tween-80) 115 % of control.
With `CC(C)(C)c1ccc(OS(=O)(=O)c2cccc([N+](=O)[O-])c2)cc1`, the T/C was 95 % of control under setting [3]; 100 % of control under setting [4]; 100 % of control (dose: 400.0 mg/kg/injection, schedule: Q01DX009 (ip), vehicle: saline with Tween-80).
On to `Cc1ccc(S(=O)(=O)NC(=O)N(C)NC(=O)C(=O)NCc2ccco2)cc1`, for which the T/C runs as follows: (dose: 50.0 mg/kg/injection, schedule: Q01DX009 (ip), vehicle: saline with Tween-80) 103 % of control; under setting [3], 103 % of control; under setting [4], 99 % of control.
As for `COC(=O)C1CCC(c2ccccc2)(c2ccccc2)C1=O.COC(=O)C1CCC(c2ccccc2)(c2ccccc2)C1=O.[Cu]` (stereo not given), the T/C reads like this: (dose: 100.0 mg/kg/injection, schedule: Q01DX001 (ip), vehicle: Klucel (hydroxypropylcellulose) (HPC)) 100 % of control; (dose: 200.0 mg/kg/injection, schedule: Q01DX001 (ip), vehicle: Klucel (hydroxypropylcellulose) (HPC)) 100 % of control; (dose: 400.0 mg/kg/injection, schedule: Q01DX001 (ip), vehicle: Klucel (hydroxypropylcellulose) (HPC)) 102 % of control.
For the compound `CC(=O)NC#N.CCN(CC)CC.[CH-]1CCCCC1.[CH-]1CCCCC1.[CH-]1CCCCC1.[Cl-].[Sn+4]`, the T/C is 106 % of control (dose: 3.12 mg/kg/injection, schedule: Q01DX005 (ip), vehicle: saline with Tween-80) and 105 % of control (dose: 6.25 mg/kg/injection, schedule: Q01DX005 (ip), vehicle: saline with Tween-80).
Consider `Nc1nc2nc3c(nc2c(=O)[nH]1)C(=O)N(c1ccc(C(=O)O)cc1)C3`, for which the T/C (dose: 6.25 mg/kg/injection, schedule: Q04DX003 (ip), vehicle: saline with Tween-80) is 111 % of control; the T/C (dose: 12.5 mg/kg/injection, schedule: Q04DX003 (ip), vehicle: saline with Tween-80) is 98 % of control; the T/C (dose: 25.0 mg/kg/injection, schedule: Q04DX003 (ip), vehicle: saline with Tween-80) was 100 % of control and 103 % of control.
Take `O=C1c2c(O)cc(O)cc2OC(c2ccc(O)cc2O)C1O` (stereo not given): the T/C by setting is: (dose: 30.3 mg/kg/injection, schedule: Q01DX009 (ip), vehicle: saline) 98 % of control; (dose: 60.7 mg/kg/injection, schedule: Q01DX009 (ip), vehicle: saline) 100 % of control; (dose: 121.4 mg/kg/injection, schedule: Q01DX009 (ip), vehicle: saline) 103 % of control.
For `COc1cc(N=Nc2c(Cl)cc([N+](=O)[O-])cc2Cl)c([OH+]C)cc1[N+]#N.COc1cc(N=Nc2c(Cl)cc([N+](=O)[O-])cc2Cl)c([OH+]C)cc1[N+]#N.[Cl][Zn][Cl]`, the T/C is 111 % of control and 115 % of control under setting [5]; 120 % of control and 122 % of control (dose: 100.0 mg/kg/injection, schedule: Q01DX009 (ip), vehicle: saline); 119 % of control and 124 % of control (dose: 200.0 mg/kg/injection, schedule: Q01DX009 (ip), vehicle: saline); 119 % of control (dose: 400.0 mg/kg/injection, schedule: Q01DX009 (ip), vehicle: saline).
In the case of `COc1ccc(-c2cn(-c3ccccc3)c3ncnc(N)c23)cc1`, the T/C runs as follows: under setting [6], 102 % of control; under setting [7], 103 % of control; under setting [8], 103 % of control.
On to `COc1ccc(C(C#N)C(=O)C(=O)Nc2ccc(C)cc2C)cc1OC` (stereo not given), for which the T/C under setting [6] is 95 % of control and the T/C under setting [7] is 100 % of control.
In the case of `COc1ccc(/C=C/C(=O)C(CN(C)C)CN(C)C)cc1OC`, the T/C is 106 % of control (dose: 0.78 mg/kg/injection, schedule: Q01DX005 (ip), vehicle: Klucel (hydroxypropylcellulose) (HPC)); 102 % of control (dose: 1.56 mg/kg/injection, schedule: Q01DX005 (ip), vehicle: Klucel (hydroxypropylcellulose) (HPC)); 104 % of control (dose: 3.12 mg/kg/injection, schedule: Q01DX005 (ip), vehicle: Klucel (hydroxypropylcellulose) (HPC)).
On to `COC(=O)C1C(=O)COC1C` (stereo not given), for which the T/C is, setting by setting: (dose: 50.0 mg/kg/injection, schedule: Q01DX005 (ip), vehicle: saline) 102 % of control; (dose: 200.0 mg/kg/injection, schedule: Q01DX005 (ip), vehicle: saline) 102 % of control.
Consider `[N-]=[N+]=NCc1cnnn1C1OC(CO)C(O)C1O` (stereo not given), for which the T/C is 102 % of control (dose: 60.0 mg/kg/injection, schedule: Q01DX005 (ip), vehicle: saline); 115 % of control (dose: 120.0 mg/kg/injection, schedule: Q01DX005 (ip), vehicle: saline); 99 % of control (dose: 240.0 mg/kg/injection, schedule: Q01DX005 (ip), vehicle: saline).
As to `Cc1nc2ccccc2c(=O)n1-c1ccc(-c2nnc(Sc3nnc(-c4ccc(-n5c(C)nc6ccccc6c5=O)cc4)n3-c3ccccc3)n2-c2ccccc2)cc1`, the T/C by setting is: under setting [9], 102 % of control; (dose: 100.0 mg/kg/injection, schedule: Q01DX005 (ip), vehicle: Klucel (hydroxypropylcellulose) (HPC)) 101 % of control; (dose: 200.0 mg/kg/injection, schedule: Q01DX005 (ip), vehicle: Klucel (hydroxypropylcellulose) (HPC)) 90 % of control.
As to `c1ccc(OCC2CO2)c(OCC2CO2)c1` (stereo not given), the T/C runs as follows: (dose: 1.88 mg/kg/injection, schedule: Q01DX005 (ip), vehicle: saline with Tween-80) 100 % of control; (dose: 3.75 mg/kg/injection, schedule: Q01DX005 (ip), vehicle: saline with Tween-80) 100 % of control; (dose: 7.5 mg/kg/injection, schedule: Q01DX005 (ip), vehicle: saline with Tween-80) 99 % of control; under setting [10], 111 % of control and 114 % of control and 121 % of control; (dose: 25.0 mg/kg/injection, schedule: Q01DX005 (ip), vehicle: saline with Tween-80) 104 % of control; under setting [2], 112 % of control. For the same compound, under setting [8], the T/C was 156 % of control and 157 % of control and 201 % of control.
For the compound `CC(C)(C(=O)O[Si](C)(C)C)/C(=C/[Si](C)(C)C)O[Si](C)(C)C`, the T/C is 103 % of control (dose: 100.0 mg/kg/injection, schedule: Q01DX001 (ip), vehicle: saline with Tween-80); 99 % of control under setting [1]; 102 % of control (dose: 400.0 mg/kg/injection, schedule: Q01DX001 (ip), vehicle: saline with Tween-80).
On to `O=c1[nH]c(=O)n(C2CC(O)C(CO)O2)cc1S` (stereo not given), for which the T/C is 99 % of control and 101 % of control and 105 % of control (dose: 12.5 mg/kg/injection, schedule: Q01DX009 (ip), vehicle: saline); 100 % of control (2×) and 111 % of control (dose: 25.0 mg/kg/injection, schedule: Q01DX009 (ip), vehicle: saline); 101 % of control and 111 % of control and 118 % of control under setting [5].
In the case of `CCOC(=O)C1=C(c2ccccc2)N=c2ccccc2=S1C` (stereo not given), the T/C runs as follows: under setting [10], 96 % of control; (dose: 30.0 mg/kg/injection, schedule: Q01DX005 (ip), vehicle: saline with Tween-80) 99 % of control; under setting [6], 98 % of control and 94 % of control.
Consider `CCCCCCCCC(C)C(=O)N1CCCC1C(=O)N1C(CC(=O)CC)CC(C)CC1C(=O)NC(C)C(=O)NC(C)(C)C(=O)NC(C)(C)C(=O)NC(C(=O)NC(C)C(=O)NC(C)(C)C(=O)NC(C)(C)C(=O)NC(C)CN(C)CCO)C(C)CC` (stereo not given) (X17-P[X18]A[Aib][Aib]IA[Aib][Aib]-X19; configuration not given here), for which the T/C (dose: 0.62 mg/kg/injection, schedule: Q01DX009 (ip), vehicle: Klucel (hydroxypropylcellulose) (HPC)) was 120 % of control; the T/C (dose: 1.25 mg/kg/injection, schedule: Q01DX009 (ip), vehicle: Klucel (hydroxypropylcellulose) (HPC)) is 118 % of control; the T/C (dose: 2.5 mg/kg/injection, schedule: Q01DX009 (ip), vehicle: Klucel (hydroxypropylcellulose) (HPC)) is 110 % of control.
As to `COc1ccc2c(ccc3oc([N+](=O)[O-])cc32)c1`, the T/C under setting [9] is 116 % of control.
